Earlier results as cited in article PMC11866498 (Cell Reports Medicine, 2025).

Experiments:
[1] = ref Previous studies
[2] = ref Previous studies; remark: listed apart in the source

C[C@H]1COC2=C1C(=O)C(=O)c1c2ccc2c1CCCC2(C)C [CTS, cryptotanshinone]
water solubility [1]: inadequate | in vivo stability [2]: inadequate
